Data from PMC8770581 (ChemMedChem, 2021).

Experiments:
α-syn fibrils = α-syn fibrils (Homo sapiens, UniProt P37840); assay: α-Synuclein fibril/ligand saturation binding assay
[1] = Absorption/emission maxima and fluorescence quantum yield of free ligand in PBS; format: physicochemical; conditions: free ligand in PBS
[2] = Kd α-syn, Table 1, synthetic α-syn fibrils 2.5 μM, 1 hour, mean ± SD (n = 3)
[3] = Kd α-syn (reported as no binding), α-syn fibrils, saturation binding

Compound	Kd (α-syn fibrils; [2]) [nM]	Absmax [1]	Emmax [1]	Kd (α-syn fibrils; [3]) [nM]
O=C1C(=C/C=C/c2ccc(F)cc2)C(=O)c2ccccc21 [compound 18, (E)-2-(3-(4-Fluorophenyl)allylidene)-1H-indene-1,3(2H)-dione]	> 2000	332	421	
O=C1/C(=C/C=C/c2ccc(Br)cc2)Cc2ccc(O)cc21 [compound 11, (E)-2-((E)-3-(4-Bromophenyl)allylidene)-6-hydroxy-2,3-dihydro-1H-inden-1-one]	> 2000	335	429	≥ 2000
O=C1C(=C/C=C/c2ccc(Br)cc2)C(=O)c2ccccc21 [compound 17, (E)-2-(3-(4-Bromophenyl)allylidene)-1H-indene-1,3(2H)-dione]	> 2000	328	419	
O=C1C(=Cc2cc3ccccc3[nH]2)C(=O)c2ccccc21 [compound 55, 2-((1H-Indol-2-yl)methylene)-1H-indene-1,3(2H)-dione]	1180 ± 88	384	519	
O=C1C(=C/C=C/c2ccccc2)C(=O)c2ccccc21 [compound 16, (E)-2-(3-Phenylallylidene)-1H-indene-1,3(2H)-dione]	> 2000	331	421	
CN(C)c1ncc(-c2ccc(/C=C3/Cc4ccc(O)cc4C3=O)s2)cn1 [compound 43, (Z)-2-((5-(2-(Dimethylamino)pyrimidin-5-yl)thiophen-2-yl)methylene)-6-hydroxy-2,3-dihydro-1H-inden-1-one]	236 ± 10.4	386	572	
O=C1/C(=C\c2ccc(-c3ccc(CO)cc3)s2)Cc2ccc(O)cc21 [compound 44, (Z)-6-Hydroxy-2-((5-(4-(hydroxymethyl)phenyl)thiophen-2-yl)methylene)-2,3-dihydro-1H-inden-1-one]	134 ± 19.2	412	545	
CN(C)c1ncc(-c2ccc(/C=C3/Cc4ccccc4C3=O)s2)cn1 [compound 41, (Z)-2-((5-(2-(Dimethylamino)pyrimidin-5-yl)thiophen-2-yl)methylene)-2,3-dihydro-1H-inden-1-one]	272 ± 29.9	410	567	
CN(C)c1ccc(/C=C/C=C2C(=O)c3ccccc3C2=O)cc1 [compound 19, (E)-2-(3-(4-(Dimethylamino)phenyl)allylidene)-1H-indene-1,3(2H)-dione]		416		
O=C1/C(=C/C=C/c2ccc(Br)cc2)Cc2ccccc21 [compound 7, (E)-2-((E)-3-(4-Bromophenyl)allylidene)-2,3-dihydro-1H-inden-1-one]	> 2000	332	430	≥ 2000
CN(C)c1ccc(-c2ccc(/C=C3/Cc4ccccc4C3=O)s2)cc1 [compound 40, (Z)-2-((5-(4-(Dimethylamino)phenyl)thiophen-2-yl)methylene)-2,3-dihydro-1H-inden-1-one]	160 ± 7.1	413	597	
CN(C)c1ccc(C=CC=C2C(=O)Oc3ccccc3C2=O)cc1 [compound 26, 3-(3-(4-(Dimethylamino)phenyl)allylidene)chromane-2,4-dione]	119 ± 21.1	440	657	
Cc1ccc2occ(C=C3C(=O)c4ccccc4C3=O)c(=O)c2c1 [compound 53, 2-((6-Methyl-4-oxo-4H-chromen-3-yl)methylene)-1H-indene-1,3(2H)-dione]	> 2000	428	471	
O=C1/C(=C/C=C/c2ccc([N+](=O)[O-])cc2)Cc2cc(F)cc(F)c21 [compound 15, (E)-5,7-Difluoro-2-((E)-3-(4-nitrophenyl)allylidene)-2,3-dihydro-1H-inden-1-one]	398.1 ± 3.9	330	439	
O=C1/C(=C\c2ccc(-c3ccc(CO)cc3)s2)CCc2ccccc21 [compound 49, (Z)-2-((5-(4-(Hydroxymethyl)phenyl)thiophen-2-yl)methylene)-3,4-dihydronaphthalen-1(2H)-one]	162 ± 13.6	372	551	
O=C1C(=Cc2coc3ccc(Br)cc3c2=O)C(=O)c2ccccc21 [compound 54, 2-((6-Bromo-4-oxo-4H-chromen-3-yl)methylene)-1H-indene-1,3(2H)-dione]	> 2000	336	406	
Nc1cccc(-c2ccc(/C=C3/Cc4ccccc4C3=O)s2)c1 [compound 38, (Z)-2-((5-(3-Aminophenyl)thiophen-2-yl)methylene)-2,3-dihydro-1H-inden-1-one]	160 ± 10	408	563	
O=C1/C(=C/C=C/c2ccc(-c3ccc(CO)cc3)cc2)Cc2ccc(O)cc21 [compound 31, (E)-6-Hydroxy-2-((E)-3-(4'-(hydroxymethyl)-[1,1'-biphenyl]-4-yl)allylidene)-2,3-dihydro-1H-inden-1-one]	126 ± 5	368	540	

Compound	Kd (α-syn fibrils; [2]) [nM]	Absmax [1]	Emmax [1]	Kd (α-syn fibrils; [3]) [nM]
O=C1/C(=C/C=C/c2ccc([N+](=O)[O-])cc2)Cc2ccccc21 [compound 10, (E)-2-((E)-3-(4-Nitrophenyl)allylidene)-2,3-dihydro-1H-inden-1-one]		336	438	
O=C(O)c1ccc(-c2ccc(/C=C/C=C3C(=O)c4ccccc4C3=O)cc2)cc1 [compound 34, (E)-4'-(3-(1,3-Dioxo-1,3-dihydro-2H-inden-2-ylidene)prop-1-en-1-yl)-[1,1'-biphenyl]-4-carboxylic acid]	1430 ± 46.8	358	409	
CN(C)c1ccc(/C=C/C=C2\Cc3ccc(O)cc3C2=O)cc1 [compound 12, (E)-2-((E)-3-(4-(Dimethylamino)phenyl)allylidene)-6-hydroxy-2,3-dihydro-1H-inden-1-one]	203 ± 15.9	406	614	
COc1cc(-c2ccc(/C=C3/CCc4ccccc4C3=O)s2)ccc1O [compound 50, (Z)-2-((5-(4-Hydroxy-3-methoxyphenyl)thiophen-2-yl)methylene)-3,4-dihydronaphthalen-1(2H)-one]	111 ± 7.8	417	596	
CN(C)c1ncc(-c2ccc(/C=C3/CCc4ccccc4C3=O)s2)cn1 [compound 51, (Z)-2-((5-(2-(Dimethylamino)pyrimidin-5-yl)thiophen-2-yl)methylene)-3,4-dihydronaphthalen-1(2H)-one]	107 ± 7.5	442	613	
N#Cc1ccc(-c2ccc(/C=C/C=C3\Cc4ccc(O)cc4C3=O)cc2)s1 [compound 33, 5-(4-((E)-3-((E)-6-Hydroxy-1-oxo-1,3-dihydro-2H-inden-2-ylidene)prop-1-en-1-yl)phenyl)thiophene-2-carbonitrile]		398	565	
COc1cc(/C=C/C=C2\Cc3cc(F)cc(F)c3C2=O)ccc1O [compound 14, (E)-5,7-Difluoro-2-((E)-3-(4-hydroxy-3-methoxyphenyl)allylidene)-2,3-dihydro-1H-inden-1-one]	241 ± 47.9	338	545	
O=C1C(=CC2=C(Cl)c3ccccc3CC2)C(=O)c2ccccc21 [compound 52, 2-((1-Chloro-3,4-dihydronaphthalen-2-yl)methylene)-1H-indene-1,3(2H)-dione]	> 2000	354	406	
O=C1/C(=C/C=C/c2ccc([N+](=O)[O-])cc2)Cc2ccc(O)cc21 [compound 13, (E)-6-Hydroxy-2-((E)-3-(4-nitrophenyl)allylidene)-2,3-dihydro-1H-inden-1-one]	726 ± 23.6	356	443	
COc1cc(C=CC=C2C(=O)Oc3ccccc3C2=O)ccc1O [compound 25, 3-(3-(4-Hydroxy-3-methoxyphenyl)allylidene)chromane-2,4-dione]	116.3 ± 0.7	490	621	
O=C1C(=Cc2cc(-c3ccc(Br)cc3)no2)C(=O)c2ccccc21 [compound 56, 2-((3-(4-Bromophenyl)isoxazol-5-yl)methylene)-1H-indene-1,3(2H)-dione]	> 2000	321	409	≥ 2000
COc1cc(/C=C/C=C2C(=O)c3ccccc3C2=O)cc(OC)c1O [compound 21, (E)-2-(3-(4-Hydroxy-3,5-dimethoxyphenyl)allylidene)-1H-indene-1,3(2H)-dione]	268 ± 11.7	434	450	
CN(C)c1ccc(-c2ccc(/C=C/C=C3\Cc4ccc(O)cc4C3=O)cc2)cc1 [compound 30, (E)-2-((E)-3-(4'-(Dimethylamino)-[1,1'-biphenyl]-4-yl)allylidene)-6-hydroxy-2,3-dihydro-1H-inden-1-one]		414	597	
O=C1C(=C/C=C/c2ccc([N+](=O)[O-])cc2)C(=O)c2ccccc21 [compound 22, (E)-2-(3-(4-Nitrophenyl)allylidene)-1H-indene-1,3(2H)-dione]	1330 ± 182	336	460	
Cc1ccc2occ(/C=C3/Cc4ccc(O)cc4C3=O)c(=O)c2c1 [compound 57, (Z)-3-((6-Hydroxy-1-oxo-1,3-dihydro-2H-inden-2-ylidene)methyl)-6-methyl-4H-chromen-4-one]	656 ± 88	326	388	
O=C1/C(=C\c2cc(-c3ccc(CO)cc3)cs2)Cc2ccccc21 [compound 46, (Z)-2-((4-(4-(Hydroxymethyl)phenyl)thiophen-2-yl)methylene)-2,3-dihydro-1H-inden-1-one]	153 ± 7.9	368	454	
3-(3-(4-(Dimethylamino)phenyl)allylidene)chromane-2,4-dione [compound 27]		442	661	
